Test results as given in US10806711B2 (priority 2011, dated 2020).

Columns and labels:
C57 WT mice = assay: Echocardiographic evaluation of contractility (EF) after bolus IV probenecid; type: in vivo, mouse; conditions: for peak change in EF: WT mice
Procedure: Echocardiographic evaluation. In order to obtain a dose response curve, male C57 WT (n=39) mice 12-16 weeks of age were anesthetized with isoflurane while intravenous jugular access (IV) was obtained under a microscope as previously described. Subsequently, an echocardiographic study with both M-mode and B-mode was obtained in parasternal long axis (PSLAX) as described below. […] Echocardiography—All echocardiographic studies were performed with a Vevo 2100 Ultrasound system (Visualsonics, Toronto Calif.) with an MS400 probe (30 MHz centerline frequency) and were post-processed at a separate workstation with Vevostrain software (Vevo 2100, v1.1.1 B1455, Visualsonic, Toronto, Canada). Images were obtained from PSLAX and short axis (SAX) views at depths between 2 and 10 mm in both M-mode and B-mode. All studies on mice exposed to I/R injury included M-mode, B-mode in PSLAX and strain imaging in SAX. While for the contractility studies, only M-mode measurements were obtained from the PSLAX. Strain imaging was performed from the B-mode images and regional radial strain and circumferential displacement were measured by regional wall and summed average from the SAX images. From the M-mode images, left ventricular cavity size and wall thickness was measured and the ejection fraction (EF) and fractional shortening (FS) calculations were obtained using the Vevo software. The change in the EF, FS, as well as strain derived parameters was obtained by subtracting the baseline value from each individual subject against subsequent time-points. In addition, the average change from baseline for each time point between 5 and 30 minutes was determined for each mouse, with measurements being taken every 5 minutes. These averages were compared between the different groups.

HL-1 cells = assay: Imaging and measurement of Ca2+ fluorescence in HL-1 cells; type: cell-based
Procedure: Imaging and measurement of Ca2+ fluorescence.—HL-1 cells were obtained as described above. Dissociated cells were plated on glass cover-slip (GG-25-polylysine #1, Neuvitro, Calif.) placed inside each well of six-well plates (BD Falcon). Acquisition of images were done at 40-65 Hz by using LSM 510 Meta system equipped with the inverted Axiovert 200 M BP (Carl Zeiss Microscopy, LLC, Thornwood, N.Y.) and LSMS Software. Image acquisition was done with Plan-Apochromat 40×/water with frame size of 512 (X) and 256(Y). To optimize the speed of acquisition, the acquisition area was limited to a few cells. […] Peak fluorescence before perfusion (F0) and that after perfusion (F) were determined manually after acquisition of images from the saved LSM files. Circular areas within the cytosol of each cell of the saved images over the entire duration of respective experiments were used to determine changes in fluorescence before and after perfusion. Normalized fluorescence, determined as a quotient of F/F0, was used as a variable to compare the relative changes in fluorescence at different incremental concentrations during statistical analyses. […]

[1] = tested on: mice with and without I/R injury; conditions: mouse, in vivo, po, 6.33 mg/kg/day
Procedure: The hearts were removed, rinsed with PBS, fixed with 3.7% buffered formaldehyde (after 30 minutes the buffer was changed) and dehydrated (hearts were placed in 70% ethanol after 18-24 hours). The samples were embedded in paraffin, sectioned into thicknesses of 6 μm, each 10 μm apart, and 2 heart sections were placed onto each slide. The slides were prepared using the in situ apoptosis detection kit, CardioTACS (Trevigen, Gaithersburg, Md.) according to the manufacturer's instructions. After staining, the slides were placed on a microscope (Olympus 1×71) and the number of apoptotic cells was counted by two separate and blinded readers in 5 fields of view for each heart section. The total number of cells was also determined for the same field, and the apoptotic cells were calculated to be a percentage of the total cells.
The water was changed twice a week and the volume was measured before and after consumption to determine the approximate dose. The mice were housed 2 to a cage for a more accurate assessment of total dose administered.

mice after I/R injury [2] = assay: Ischemia/Reperfusion followed by probenecid bolus (echocardiography); type: in vivo, mouse
Procedure: Ischemia/Reperfusion methods—Mice were anesthetized with sodium pentobarbital and the heart exposed through a left thoracotomy at the level of the fourth intercostal space. The mice were intubated and placed on a mini-ventilator (Harvard apparatus, Holliston, Mass.). A loop occluder was placed around the left anterior descending artery (LAD), and tightened, occluding it for either 30 minutes or 45 minutes. After surgery, the thorocotomy was sutured in layers, and the animal was allowed to recover. Echocardiography methods—All echocardiographic studies were performed as previously described for Example 1. […] The mice were imaged at 5 minute intervals for a total of 30 minutes.

mice after I/R injury [3] = assay: Ischemia/Reperfusion followed by oral probenecid (echocardiography); type: in vivo, mouse
Procedure: Ischemia/Reperfusion methods—Mice were anesthetized with sodium pentobarbital and the heart exposed through a left thoracotomy at the level of the fourth intercostal space. The mice were intubated and placed on a mini-ventilator (Harvard apparatus, Holliston, Mass.). A loop occluder was placed around the left anterior descending artery (LAD), and tightened, occluding it for either 30 minutes or 45 minutes. After surgery, the thorocotomy was sutured in layers, and the animal was allowed to recover. Echocardiography methods—All echocardiographic studies were performed as previously described for Example 1.

TRPV2 = conditions: HEK293 cells, identified 2007; cited from earlier work

CCCN(CCC)S(=O)(=O)c1ccc(C(=O)O)cc1 [probenecid]
peak change in EF (C57 WT mice; 75 mg/kg bolus IV): 5.26±3.35 | peak change in EF (C57 WT mice; 100 mg/kg bolus IV): 8.40±2.80 | time EF remained at an elevated state (C57 WT mice; 200 mg/kg IV, n=5): at least 1 hour | average increase in EF over baseline (C57 WT mice; 200 mg/kg IV, n=5, evaluated for a longer period (at least 1 hour)): 8.9±2.57 | echocardiographic changes (FIG. 1B) (C57 WT mice; FIG. 1B legend): did not result in any echocardiographic changes | time after bolus injection at which increased contractility was noted (C57 WT mice; all doses at or above 75 mg/kg IV): ≤ 5 min | estimated EC50 of dose dependent increase in contractility (EF) (C57 WT mice; bolus IV, measured at 5 minute intervals for 30 minutes total): 49.33 mg/kg | median peak cytosolic fluorescence after vs before perfusion (HL-1 cells; higher probenecid concentrations (up to 10^−4)): significantly higher | median peak cytosolic fluorescence before vs after perfusion (HL-1 cells; probenecid 10^−8): No significant differences | apoptosis in healthy mice [1]: did not induce significant apoptosis | EF after I/R injury (mice after I/R injury [2]; 100 mg/kg IP bolus, all treated mice): statistically significant increase in EF | change in EF at peak effect (mice after I/R injury [2]; 100 mg/kg IP, 10 minutes, mice with initial EF 50-60%): 19.72±4.10% | time of peak effect on EF (mice after I/R injury [2]; 100 mg/kg IP, mice with initial EF 50-60%): 10 min | contractility over time (mice after I/R injury [2]; 100 mg/kg IP, mice with lower initial EFs (40-50%)): continued to enhance contractility throughout the full 30-minute experiment | radial displacement (mice after I/R injury [3]; oral in water after 45 min I/R, water 0.018±0.018, p<0.05): 0.071±0.013 | LV cavity size (LV Vol;d) increase (mice after I/R injury [3]; oral in water after 45 min I/R, water 22.55±4.47, p=0.076): 7.59±6.08 | change in EF (mice after I/R injury [3]; oral in water after I/R (FIG. 11D legend)): slight (but not statistically significant) increase in the change in EF | cytosolic Ca2+ in TRPV2-expressing cells (TRPV2): significant increase
